Data published in patent US20200360465A1, “METHOD OF TREATING LOWER URINARY TRACT SYMPTOMS WITH FEXAPOTIDE TRIFLUTATE” (Nymox Corporation, priority 2019, published 2020).
Marks after values point to notes of the source that are not given here. Where no end group is shown, it is not given here.

Tests used:
[1] = system: Patients with BPH and who optionally also had LUTS; assay: Clinical trial: deterioration/worsening in urinary peak flow rate (Qmax worsening) after intraprostatic injection; type: in vivo, human
Procedure: (§1) Clinical trials were conducted on numerous individuals having BPH, some of whom also had LUTS. All protocols were done in accordance with applicable regulations, and carried out by physicians.
Patients with BPH and who optionally also had LUTS were given an intraprostatic injection of either a) FT 2.5 mg in phosphate buffered saline pH 7.2 (“PBS”) or b) PBS alone, under double-blind conditions by a urologist in an office setting under ultrasound guidance. Patients were followed for 12 months to several years with regular physical examinations, laboratory tests, and evaluations of symptoms. Urinary peak flow (Qmax) was measured by flow meter readings using standard techniques, at 3 months and at 12 months.

[2] = system: Patients with BPH and who optionally also had LUTS; assay: Clinical trial: inability to provide urine volume >125 mL (Qmax unable / Qmax failure) after intraprostatic injection; type: in vivo, human
Procedure: as §1
Patients with BPH and who optionally also had LUTS were given an intraprostatic injection of either a) FT 2.5 mg in phosphate buffered saline pH 7.2 (“PBS”) or b) PBS alone, under double-blind conditions by a urologist in an office setting under ultrasound guidance. Patients were followed for 12 months to several years with regular physical examinations, laboratory tests, and evaluations of symptoms. Urinary peak flow (Qmax) was measured by flow meter readings using standard techniques, at baseline, and at 12 months in subjects who were able to urinate adequate volume of urine (>125 mL) to provide a valid test. Subjects who were unable to void >=125 mL despite drinking as much water as they wanted were classified as “Qmax unable.” The numbers of subjects who became Qmax unable was compared in different groups.

[3] = system: Patients with BPH and who optionally also had LUTS; assay: Clinical trial: nocturia frequency by patient questionnaires after intraprostatic injection; type: in vivo, human
From the text: Improvements in obstructive and irritative symptoms can be measured in accordance with techniques known in the art. For example, uroflowmeters are known to differentiate urine weight change to provide a continuous plot of the flow rate vs. time that is smoothed by internal electronic filtering to permit precise (±5%) measurement of Qmax. Schafer W, et al. “Good urodynamic practices: Uroflowmetry, filling cystometry and pressure-flow studies,” Neurourol Urodynamics, Vol. 21, pp. 261-74 (2002). Nocturia can be measured in a variety of manners, most of which involve patients completing a questionnaire before and after treatment to establish a baseline, and then determine the difference (improvement, lack of improvement, worsening, etc.) from baseline after treatment. Exemplary questionnaires include evaluating the scores from the nocturia question included in the International Prostate Symptom Score (IPSS), assessing the number of nocturnal voids (Boyarsky symptom score), the Madsen-Iversen Symptom Score, and the ICSmale questionnaire. See, e.g., Chartier-Kastler, et al., “The Measurement of Nocturia and its Impact on Quality of Sleep and Quality of Life in LUTS/BPH,” Eur. Urol. Supp., Vol. 5, pp. 3-11 (2006). A preferred method of measuring nocturia is by determining the mean change from baseline of the nocturia question in the IPSS (question 7). Question 7 solicits from the patient how many times over the past month they had to get up to urinate from the time they went to bed until the time they got up—the score ranging from none (score 0) to 5 or more times (score 5).
as §1
Patients with BPH and who optionally also had LUTS were given an intraprostatic injection of either a FT2.5 in 10 mL phosphate buffered saline pH 7.2 (“PBS”) or PBS 10 mL alone, under double-blind conditions by a urologist in an office setting under ultrasound guidance. Patients were followed for 12 months with regular physical examinations, laboratory tests, and evaluations of symptoms. The mean frequency of nocturia in the prior month was recorded in patient questionnaires.

[4] = system: prostate glandular epithelial cells; assay: In vitro tissue culture genetic array: apoptosis pathway activation; type: cell-based
From the text: FT is a new molecular entity which in vitro stimulates caspase pathways (activation of caspases 7, 8, and 10, caspase recruitment domains 6, 11, and 14, and DIABLO), tumor necrosis factor pathways (activation of TNF1, TNFSF6, TNFSF8, TNFSF9, CD70 ligands, and TNFRSF19L, TNFRSF25, TRAF2, TRAF3, TRAF4, TRAF6 receptors), and BCL pathways (activation of BIK, HRK, BCL2L10 and BCL3) in prostate glandular epithelial cells, based on tissue culture genetic array data. FT selectively causes loss of cell membrane integrity, mitochondrial metabolic arrest, depletion of RNA, DNA lysis and aggregation, and cell fragmentation and cell loss. The apoptotic process leads to typical ultrastructural progressive changes of membranous disruption and swelling, progressively deepening nuclear invaginations with eventual membranous bleb formations and cell death and fragmentation into apoptotic bodies. Histologically, typical apoptotic changes with positive immunohistochemical staining of markers for apoptosis are found throughout the injected areas for up to several weeks after treatment.

[5] = about 3 months after single dose of FT ≥2.5 mg, vs control

Fexapotide Triflutate (IDQQVLSRIKLEIKRCL; also: trifluoroacetate salt) [FT]
% of Qmax Worsening at 12 months ([1]; 12 months after single intraprostatic dose of 2.5 mg FT, placebo 42%, p = 0.0239): 35% | flow rate mean improvements, FT treated group versus control group ([1]; Qmax at 3 months and 12 months, FT 2.5 mg vs PBS): similar | percent decrease in patients with deterioration/worsening in peak flow rate compared to control [1, 5]: ≈ 5.1% | percentage of patients who showed deterioration/worsening in peak flow rate ([1]; about 3 months after single dose of FT ≥2.5 mg, control 37%): 35.2% | % of Qmax Unable at 12 months (% of patients with inability to provide urine volume >125 mL) ([2]; 12 months after single intraprostatic dose of 2.5 mg FT, placebo 5.9%): 4.5% | mean flow rate improvements, FT treated patients versus controls ([2]; Qmax at baseline and 12 months, FT 2.5 mg vs PBS): similar | percent decrease in patients unable to provide urine volume ≥125 ml compared to control [2, 5]: ≈ 10% | percentage of patients unable to provide a urine volume of ≥125 ml ([2]; about 3 months after single dose of FT ≥2.5 mg, control 4.3%): 3.9% | improvement in percentage of patients with Nocturia frequency change >0 from baseline to 12 months compared to control ([3]; 12 months after single dose of 2.5 mg FT, vs vehicle control): about 36% | mean improvement in frequency of nocturia per night, FT treated subjects versus controls ([3]; 12 months follow-up, FT 2.5 mg vs PBS): similar | improvement in mean nocturia frequency points improvement from baseline versus control ([3]; after 3 months, single dose of FT 2.5 mg, not significantly better than control): ~8% | % of Patients With Nocturia Frequency Change >0 from Baseline to 12 Months ([3]; single intraprostatic dose of 2.5 mg FT, placebo 19.19%, p = 0.0425 vs. Vehicle alone): 14.15%* | BCL pathways (activation of BIK, HRK, BCL2L10 and BCL3) [4]: stimulates | caspase pathways (activation of caspases 7, 8, and 10, caspase recruitment domains 6, 11, and 14, and DIABLO) [4]: stimulates | tumor necrosis factor pathways (activation of TNF1, TNFSF6, TNFSF8, TNFSF9, CD70 ligands, TNFRSF19L, TNFRSF25, TRAF2, TRAF3, TRAF4, TRAF6 receptors) [4]: stimulates
